# Patent US20230047788A1, “COMPOSITIONS COMPRISING 5-CHOLESTEN-3, 25-DIOL, 3-SULFATE (25HC3S) OR PHARMACEUTICALLY ACCEPTABLE SALT THEREOF AND AT LEAST ONE CYCLIC OLIGOSACCHARIDE” (Virginia Commonwealth University, priority 2016, published 2023)
# Tests used:
# [1] = test system: CLP surgery-induced sepsis model; assay: Survival in rodent model of surgically-induced sepsis (cecum ligation puncture); type: in vivo, CD rats; conditions: 30 mg/kg sc within 30 minutes after surgery, end of study (3 days or 72 hours), N=5
# Protocol: The subjects for the study were 10 male CD rats (12-13 weeks of age, 400-450 g).
# A solution formulation of 25HC3S sodium salt and its respective vehicle was used for the study. The Vehicle was a solution of 40 mg/mL hydroxypropyl betadex with 10 mM sodium phosphate buffer in 70% (v/v) of 0.9% (w/v) sodium chloride and 30% (v/v) of sterile water. 25HC3S sodium salt was pre-dissolved into the Vehicle solution to result in a drug concentration of 5 mg/mL. The 25HC3S solution was ready-to-use at the start of dosing. Both the vehicle and 25HC3S solution were stored at room temperature. Before dosing, the 25HC3S solution was confirmed to be clear and void of any precipitation. Otherwise, if precipitation was observed, the solution was to be sonicated at room temperature for 10 minutes to dissolve particulates.
# The CLP procedure is an established and widely-used approach to investigate the progression and characteristics of clinical sepsis. On the day of surgery, animals were weighed and monitored for their baseline temperature. Animals were anesthetized with isoflurane and depth of anesthesia was checked by toe-pinching. Dipyrone (an analgesic) was given subcutaneously prior to surgery. […]
# Rats were monitored for survival for 3 days after CLP surgery and 25HC3S treatment. […]
# Animals were monitored for mortality, “clinical signs” and pain level. […]
# [2] = Solubility of 25HC3S in 10 mM sodium phosphate buffer pH 7.6 with HPbCD at 5, 15 and 25°C; type: physicochemical
# Protocol: A total of five suspensions of 25HC3S were prepared in 10 mM sodium phosphate buffer at pH 7.6 containing 0, 50, 100, 250 and 400 mg/mL HPbCD. The suspensions were initially sonicated and then stirred. Each suspension (40 mL for the suspension without HPbCD and 20 mL for the remaining suspensions) was then equally divided into 3 vials and stored in 5° C., 15° C. and 25° C./60% relative humidity (RH) stability chambers.
# Each suspension was stirred constantly in the stability chambers by a small spin bar and electronic stirrer. At day 1 and day 3, half of each suspension (approximately 6 mL for the sample without HPbCD and 3 mL for the rest of the suspensions with HPbCD) was withdrawn from the vial with a 3 or 5 mL disposable syringe. A syringe filter was then attached to the syringe for filtration of the suspensions. To minimize sample temperature changes during filtration, the syringe and filter were equilibrated at the respective stability chamber temperatures before their use. Approximately 3 mL of the filtrate for the sample without HPbCD and 1 mL of the filtrate for the remaining suspensions in HPbCD were discarded to ensure that the filter membrane was sufficiently saturated with 25HC3S to prevent absorption of the drug from the remaining filtrate. Then approximately 0.5 mL to 1.5 mL of filtrate was collected for HPLC analysis. At day 3, the remaining filtered portions were measured for pH. Reverse phase HPLC was used for measuring the concentration of 25HC3S in the solubility samples.
# [3] = as above; type: physicochemical; conditions: 25°C/60% RH, supernatant
# [4] = test system: liver function markers ALT, AST, ALK, LDH; assay: Liver function markers in serum of mice overdosed with APAP (350 mg/kg); type: in vivo, C57BL/6J mice; conditions: vehicle plus 25 mg/kg 25HC3S 0.5 hours after overdose, 24 hours after treatment
# Protocol: The ability of 25HC3S to treat symptoms of APAP overdose was examined. 12-week-old male C57BL/6J mice were fasted overnight and injected (intraperitoneally) with APAP: 600 mg/kg (high dose) for mortality studies or 350 mg/kg (low dose) for liver function and gene studies. Control mice received only vehicle (20% (v/v) a propylene glycol, 4% (w/v) cyclodextrin (powdered hydroxypropyl beta cyclodextrin in sterile 10% (w/v) glucose.
# A composition comprising 25 mg/kg of 25HC3S sodium salt in vehicle was administered intravenously to the experimental mice 0.5 hours after APAP administration. Mortality was monitored in the high dose mice. In the low dose mice, the liver function markers aspartate aminotransferase (AST), alanine aminotransferase (ALT), alkaline phosphatase (ALK) and lactate dehydrogenase (LDH), were measured in serum. Impacts on gene expression were determined by Quantitative Real-time PCR. Membrane potentials were measured using JC1 staining and flow cytometry.
# One group of low dose mice received treatment with 25HC3S in vehicle 0.5 hours after the overdose. In this group, liver function markers were assessed 24 hours after treatment. […] However, in mice treated with vehicle alone, the values were […] and in mice treated with vehicle plus 25 mg/kg of 25HC3S, the values were near normal. The differences in the measured values were statistically significant.
structure (smiles),measurement,setting,value
"C[C@H](CCCC(C)(C)O)[C@H]1CC[C@H]2[C@@H]3CC=C4C[C@@H](OS(=O)(=O)[O-])CC[C@]4(C)[C@H]3CC[C@]12C.[Na+] [25HC3S, 5-cholesten-3, 25-diol, 3-sulfate]",rats that had died,[1],60%
same,pH of Filtrate Day 3,"[2]; 5°C, HPbCD 0 mg/mL",7.62
same,pH of Filtrate Day 3,"[2]; 5°C, HPbCD 50 mg/mL",7.70
same,Solubility at Day 3,"[2]; 5°C, HPbCD 50 mg/mL, phosphate buffer pH 7.6",9.32 mg/mL
same,pH of Filtrate Day 3,"[2]; 5°C, HPbCD 100 mg/mL",7.80
same,Solubility at Day 3,"[2]; 5°C, HPbCD 100 mg/mL, phosphate buffer pH 7.6",18.31 mg/mL
same,pH of Filtrate Day 3,"[2]; 5°C, HPbCD 250 mg/mL",8.06
same,Solubility at Day 3,"[2]; 5°C, HPbCD 250 mg/mL, phosphate buffer pH 7.6",42.80 mg/mL
same,pH of Filtrate Day 3,"[2]; 5°C, HPbCD 400 mg/mL",8.42
same,Solubility at Day 3,"[2]; 5°C, HPbCD 400 mg/mL, phosphate buffer pH 7.6",66.89 mg/mL
same,pH of Filtrate Day 3,"[2]; 15°C, HPbCD 0 mg/mL",7.59
same,pH of Filtrate Day 3,"[2]; 15°C, HPbCD 50 mg/mL",7.77
same,Solubility at Day 3,"[2]; 15°C, HPbCD 50 mg/mL, phosphate buffer pH 7.6",9.50 mg/mL
same,pH of Filtrate Day 3,"[2]; 15°C, HPbCD 100 mg/mL",7.98
same,Solubility at Day 3,"[2]; 15°C, HPbCD 100 mg/mL, phosphate buffer pH 7.6",18.51 mg/mL
same,pH of Filtrate Day 3,"[2]; 15°C, HPbCD 250 mg/mL",8.07
same,Solubility at Day 3,"[2]; 15°C, HPbCD 250 mg/mL, phosphate buffer pH 7.6",43.79 mg/mL
same,pH of Filtrate Day 3,"[2]; 15°C, HPbCD 400 mg/mL",8.26
same,Solubility at Day 3,"[2]; 15°C, HPbCD 400 mg/mL, phosphate buffer pH 7.6",68.10 mg/mL
same,Solubility at Day 3,"[2]; 25°C/60% RH, HPbCD 0 mg/mL, phosphate buffer pH 7.6, centrifuged sample",0.006^1 mg/mL
same,pH of Filtrate Day 3,"[2]; 25°C/60% RH, HPbCD 50 mg/mL",7.65
same,Solubility at Day 3,"[2]; 25°C/60% RH, HPbCD 50 mg/mL, phosphate buffer pH 7.6",9.90 mg/mL
same,Solubility at Day 3,"[2]; 25°C/60% RH, HPbCD 100 mg/mL, phosphate buffer pH 7.6",18.33 mg/mL
same,pH of Filtrate Day 3,"[2]; 25°C/60% RH, HPbCD 100 mg/mL, supernatant",7.672
same,Solubility at Day 3,"[2]; 25°C/60% RH, HPbCD 250 mg/mL, phosphate buffer pH 7.6",42.37 mg/mL
same,Solubility at Day 3,"[2]; 25°C/60% RH, HPbCD 400 mg/mL, phosphate buffer pH 7.6",70.80 mg/mL
same,pH of Filtrate Day 3,"[2]; 25°C/60% RH, HPbCD 400 mg/mL, supernatant",8.342
same,temperature dependence of solubility in the presence of HPbCD,[2]; between 5°C and 25°C,not temperature dependent
same,pH of Filtrate Day 3,[3]; HPbCD 0 mg/mL,7.532
same,pH of Filtrate Day 3,[3]; HPbCD 250 mg/mL,7.842
same,"liver function markers ALT, AST and LDH",[4],near normal
